The nature of data set [1]: Tumor growth, MCF-7 non-metastatic breast cancer model in athymic nude mice. The data set is classed as in vivo, mouse. The method, then:
The polypeptides of the invention were also tested for their effect on tumor growth in a mouse model of non-metastatic breast cancer. MCF-7 human non-metastatic breast cancer cells were cultured at 37° C., 5% CO2 in normal growth media. Cells were harvested at 80% to 90% confluence. Immune compromised athymic nude mice (J:NU) were divided into 2 groups (9 animals per group). All mice were injected with ˜4.5×10^6 MCF-7 cells which had been stained with VIVO Tracker 680 and suspended in 200 μl of PBS/Matrigel mixture. Cells were injected subcutaneously on the dorsal surface of treated animals using a 22 gauge needle fitted with a 500 μl syringe.
Animals were designated vehicle and peptide treated. The peptide treated animals were treated with the RP-397 polypeptide (SEQ ID NO: 194). Freshly prepared RP-397 peptide was dissolved in sterile saline at a concentration of 100 μM and was used to treat the animals in the peptide group. Vehicle treated animals were injected with saline buffer alone. All treatments were injected into the tumor mass two times weekly for 5 weeks using a 27½ gauge needle fitted with a 1 ml syringe. Animal weights and tumor volumes were measured 3 times weekly and the fluorescence labeling was followed by VIVO Tracker 680 and IVIS Imaging.

A further data set has as its system NF-kB. Briefly: NF-kB activity in 3T3-L1 preadipocyte Nfkb-RE/GFP reporter cells. It is filed as cell-based. The conditions noted are these: 0.01 μM peptide, lipopolysaccharide 20 ng/ml, GFP fluorescence. The method, then:
NF-kB activity was monitored using the a 3T3-L1 preadipocyte cell line stably transformed with a Nfkb-RE/GFP construct, as described in Shen et al. (2013), “Adipocyte reporter assays: Application for identification of anti-inflammatory and antioxidant properties of mangosteen xanthones,” Mol. Nutr. Food Res. 00:1-9, the entire contents of which are incorporated herein by reference. NF-kB expressing adipocyte reporter cells were plated in DMEM in wells of a 24-well plate, at a seeding density of 5×10^4. On the second and third days post-plating, test peptides were individually added to the wells to a final concentration of 0.01 μM. The test peptides included RP-398 (SEQ ID NO: 155), and RP-185 (SEQ ID NO: 123). On day 4 post-plating, lipopolysaccharide was added to the medium to a final concentration of 20 ng/ml. Finally, on day 5 post-plating, the cells were harvested and a fluorescence assay performed to detect GFP expression levels.

The test system of a further data set is M2-polarized macrophages. Briefly: Viable cell count of M2-polarized bone marrow macrophages. It is filed as cell-based, mouse. Conditions: 100 nM, 72 hours. The method, then: (§1) Primary bone marrow cells were collected from male C57BL/6J (The Jackson Laboratory, Bar Harbor, Me.). Mouse bone marrow macrophages were differentiated in vitro from the primary bone marrow cells by culturing in Dulbecco's minimal essential medium (DMEM) with 10% FBS and 30 ng/ml murine M-CSF (colony stimulating factor) for 6 days. At day 7, macrophages were plated into 12-well plates and cultured in DMEM (10% FBS) with (i) IL-4 peptide (20 ng/mL), (ii) INF-γ (10 ng/mL), or (iii) neither IL-4 nor INF-γ for 24 hours. After 24 hours, the media was replaced with pure DMEM and the cells were cultured for an additional 48 hours. The resulting macrophages were (i) M2-polarized, (ii) M1-polarized, or (iii) undifferentiated, respectively.
(§2) A macrophage sample containing approximately 70,000 […] macrophages per ml was incubated for 72 hours with 100 nM RP-182 (SEQ ID NO: 121). […] Thus, the RP-182 had little effect on the viability of M1 macrophages.

The test system of a further data set is PD-1. Briefly: PD-1 staining of tumors in transgenic p53/KRAS mice. It is filed as in vivo, mouse. Conditions: 10 mg/kg daily subcu for one week, vs vehicle. On the procedure:
(§3) In one experiment, tumors in transgenic p53/KRAS mice were allowed to grow to approximately […] in volume, and the animals were then treated daily subcu for one week with either vehicle only, or 10 mg/kg RP-182, following which the animals were sacrificed and the tumors resected, formalin-fixed, and stained with antibodies to PD-1 (FIG. 19), PD-L1 and PD-L2 (FIG. 20).

For data set [2], the system named is human triple-negative breast cancer cells (MDA-MB-231). Briefly: Tumor volume, MDA-MB-231 triple-negative breast cancer in nude mice, combination with Gemcitabine. It is filed as in vivo, mouse. Conditions: Gemcitabine+RP-182 cohort, from day 32. On the procedure:
To test this theory, cohorts of immunocompromised (“nude”) mice were injected with ˜5×10^6 human triple-negative breast cancer cells (MDA-MB-231) under the upper left teat. Following this administration, one cohort received only vehicle; two of the cohorts received the chemotherapeutic agent Gemcitabine, at a q4d dose of 40 mg/kg of body weight. One of these cohorts also received RP-182 (SEQ ID NO: 121) at a daily dose of 5 mg/kg body weight; and a fourth cohort received only RP-182 at a daily dose of 5 mg/kg body weight. Beginning on day 32 of the study, in the Gemcitabine+RP-182 cohort, concentrations of RP-182 were increased to 20 mg/kg body weight. Tumor volume was assessed at various time points following initial cell administration (FIG. 21). After 50 days, the mice were sacrificed.

In the next data set the test system is PD-L2. Briefly: PD-L2 staining of tumors in transgenic p53/KRAS mice. It is filed as in vivo, mouse. Conditions: 10 mg/kg daily subcu for one week, vs vehicle. On the procedure: as §3
The subject of the next data set is M1-polarized macrophages. Briefly: Viable cell count of M1-polarized bone marrow macrophages. The data set is classed as cell-based, mouse. Conditions: 100 nM, 72 hours. On the procedure: as §1, §2
Data set [3] concerns undifferentiated macrophages. Briefly: Viable cell count of undifferentiated bone marrow macrophages. The data set is classed as cell-based, mouse. The conditions noted are these: 100 nM, 72 hours; sample approximately 70,000 per ml. On the procedure: as §1, §2
Another data set has as its system PD-L1. Briefly: PD-L1 staining of tumors in transgenic p53/KRAS mice. The data set is classed as in vivo, mouse. Conditions: 10 mg/kg daily subcu for one week, vs vehicle. The method, then:
as §3

Entries after “also recorded” stand apart in the source; their conditions may differ. No end group written: not given here.

In turn, FAKKFAKKF [RP-397, FAKKFAKKF] had a Body Weight After in data set [1] (after treatment) of 30.1 g. The sequence further gave a Body Weight Before in data set [1] (before treatment) of 25.1 g.
Take FAKKFAKKFK [RP-398]: the “NF-kB expression reduced relative to control cells” value with NF-kB is given as “approximately 58%”.
With FFKKFFKKFK [RP-185], in the data set with NF-kB, the “NF-kB expression reduced relative to control cells” value is on record as “approximately 58%”.
For the sequence KFRKAFKRFF [RP-182], the “viable cell count, M2-polarized macrophages” value in the data set with M2-polarized macrophages is on record as 20,000 cells per ml. The “PD-1 expression in tumor” value in the data set on PD-1 was “significantly downregulated; also recorded: reduced”. For the same sequence, in data set [2], the “increase in tumor volume after RP-182 raised to 20 mg/kg” value is given as “essentially halted”. Further, the “PD-L2 expression in tumor” value in the data set with PD-L2 is “significantly downregulated; also recorded: reduced”. Moreover, the “viable cell count, M1-polarized macrophages” value in the data set with M1-polarized macrophages is listed as 68,000 cells per ml. In addition, the “viable cell count, undifferentiated macrophages” value in data set [3] is listed as 68,000 cells per ml. For the same sequence, the “PD-L1 expression in tumor” value in the data set on PD-L1 was “significantly downregulated; also recorded: reduced”.

These data come from US9492499B2, “Peptides having anti-inflammatory properties” (Riptide Bioscience, Inc., priority 2014, dated 2016).
